This note sets out measurements from EP0850950A1, “PEPTIDE DERIVATIVES” (DAIICHI PHARMACEUTICAL CO., LTD., priority 1995, dated 1998).

The test system of the assay is Mice. In words: analgesic activity by pressure stimulation method (tail base). Particulars: percent of maximum possible effect, maximum stimulating pressure 100 mmHg; for MPE(%) 1 mg/kg s.c. (%): 1 mg/kg subcutaneous administration (skin in the backs); for MPE(%) 10 mg/kg p.o.(%): 10 mg/kg oral administration. In kind it is in vivo. The protocol:
The analgesic activities of the peptide derivatives of the present invention were evaluated by pressure stimulation method. Mice were subjected to pressure stimulation at the bases of their tails at a rate of 10 mmHg/second. […] For the experiments, mice that were preliminarily determined to respond to a pressure of 40-50 mmHg were used. The maximum stimulating pressure was 100 mmHg. Analgesic activity was calculated as percent of maximum possible effect (% of MPE) according to the following equation: % of MPE =(Pt - Po)/(Pc - Po)× 100 [formula] wherein Po is the pain reaction threshold before the administration of a drug; Pt is the pain reaction threshold "t" minutes after the administration of the drug; and Pc is the maximum stimulating pressure. The results of analgesic activity obtained from subcutaneous administration (skin in the backs) and oral administration are shown in Table 1.

In the case of `Cc1cc(O)cc(C)c1C[C@H](NC(=N)N)C(=O)N[C@H](CCCNC(=N)N)C(=O)N[C@@H](Cc1ccccc1)C(=O)N(C)CCC(=O)O` [Example 2, H2NC(NH)-DMT-D-Arg-Phe-MeβAla-OH·diacetate], the “MPE(%) 1 mg/kg s.c. (%)” value worked out at 93.47% and the “MPE(%) 10 mg/kg p.o.(%)” value came out at 22.78%.

For `CN(CCC(=O)O)C(=O)[C@H](Cc1ccccc1)NC(=O)[C@@H](CCCNC(=N)N)NC(=O)[C@H](Cc1ccc(O)c(O)c1)NC(=N)N` [Example 4, H2NC(NH)-DOPA-D-Arg-Phe-MeβAla-OH·diacetate], the “MPE(%) 1 mg/kg s.c. (%)” value is listed as 70.85% and the “MPE(%) 10 mg/kg p.o.(%)” value was 18.11%.

Regarding `CN(CCC(=O)O)C(=O)[C@H](Cc1ccccc1)NC(=O)[C@@H](CCNC(=N)N)NC(=O)[C@H](Cc1ccc(O)cc1)NC(=N)N` [Example 10, H2NC(NH)-Tyr-(R)-AGBA-Phe-MeβAla-OH·diacetate], the “MPE(%) 1 mg/kg s.c. (%)” value is reported as 42.78% and the “MPE(%) 10 mg/kg p.o.(%)” value was 10.62%.

In the case of `CC(=N)NCCC[C@@H](NC(=O)[C@H](Cc1ccc(O)cc1)NC(=N)N)C(=O)N[C@@H](Cc1ccccc1)C(=O)N(C)CCC(=O)O` [Example 17, H2NC(NH)-Tyr-(R)-IEPE-Phe-MeβAla-OH·diacetate], the “MPE(%) 1 mg/kg s.c. (%)” value turned out to be 100% and the “MPE(%) 10 mg/kg p.o.(%)” value is recorded as 88.34%.

Take `CC(=N)N[C@@H](Cc1ccc(O)cc1)C(=O)N[C@H](CCCCN)C(=O)N[C@@H](Cc1ccccc1)C(=O)N(C)CCC(=O)O` [Example 19, H3C-C(NH)-Tyr-D-Lys-Phe-MeβAla-OH·diacetate]: the “MPE(%) 1 mg/kg s.c. (%)” value came to 87.11% and the “MPE(%) 10 mg/kg p.o.(%)” value is on record as 82.29%.

As to `CN(CCC(=O)O)C(=O)[C@H](Cc1ccc(O)cc1)NC(=O)[C@@H](CCCNC(=N)N)NC(=O)[C@H](Cc1ccc(O)cc1)NC(=N)N` [Example 25, H2NC(NH)-Tyr-D-Arg-Tyr-MeβAla-OH·diacetate], the “MPE(%) 1 mg/kg s.c. (%)” value turned out to be 22.55% and the “MPE(%) 10 mg/kg p.o.(%)” value worked out at 10.96%.

With `CN(CCC(=O)O)C(=O)[C@H](CCc1ccccc1)NC(=O)[C@@H](CCCNC(=N)N)NC(=O)[C@H](Cc1ccc(O)cc1)NC(=N)N` [Example 26, N-H2NC(NH)-Tyr-D-Arg-APBA-MeβAla-OH·diacetate], the “MPE(%) 1 mg/kg s.c. (%)” value was determined as 32.83% and the “MPE(%) 10 mg/kg p.o.(%)” value was determined as 14.44%.

Consider `CN(CCC(=O)O)C(=O)[C@H](CC1CCCCC1)NC(=O)[C@@H](CCCNC(=N)N)NC(=O)[C@H](Cc1ccc(O)cc1)NC(=N)N` [Example 27, H2NC(NH)-Tyr-D-Arg-Cha-MeβAla-OH·diacetate], for which the “MPE(%) 1 mg/kg s.c. (%)” value turned out to be 52.14% and the “MPE(%) 10 mg/kg p.o.(%)” value is given as 33.15%.

Turning to `CC(=N)N[C@@H](Cc1ccc(O)cc1)C(=O)N[C@H](CC[S+](C)[O-])C(=O)N[C@@H](Cc1ccccc1)C(=O)N(C)CCC(=O)O` (stereo partly drawn) [Example 31, H3C-C(NH)-Tyr-D-AMSB-Phe-MeβAla-OH·acetate], the “MPE(%) 1 mg/kg s.c. (%)” value turned out to be 100% and the “MPE(%) 10 mg/kg p.o.(%)” value is listed as 96.18%.

On to `CC(=N)NC[C@@H](NC(=O)[C@H](Cc1ccc(O)cc1)NC(=N)N)C(=O)N[C@@H](Cc1ccccc1)C(=O)N(C)CCC(=O)O` [Example 32, H2NC(NH)-Tyr-D-IEPR-Phe-MeβAla-OH·diacetate], for which the “MPE(%) 1 mg/kg s.c. (%)” value came out at 66.61% and the “MPE(%) 10 mg/kg p.o.(%)” value was 52.72%.
